By Ki is commonly meant a measure of affinity in units of concentration, obtained from inhibition or displacement. The term EC50 denotes the concentration needed to bring the measured effect to its halfway point.

These results are taken from ChEMBL document CHEMBL1140452, “5'-halogenated analogs of oxymorphindole” (Bioorg Med Chem Lett, 2007).

The source made the active and inactive calls. No cut-off for these calls is given here.

Assay [1] deals with T1, Mu-type opioid receptor (Homo sapiens, UniProt P35372). Briefly: Displacement of [3H]DAMGO from mu opioid receptor. Background: Loss of bound radioactivity is the signal in a displacement assay; it reports binding, not function.
For assay [2], the target named is T2, Delta-type opioid receptor (Homo sapiens, UniProt P41143). The experiment in a line: Displacement of [3H]p-Cl-DPDPE from delta opioid receptor.
Assay [3] concerns the target Kappa-type opioid receptor (Homo sapiens, UniProt P41145). Briefly: Displacement of [3H]U-69593 from cloned kappa opioid receptor.
For the next assay, the species on record is Homo sapiens. Briefly: Selectivity for delta opioid receptor over mu opioid receptor.
Assay [4] relates to Mus musculus. Briefly: Antinociceptive effect in mouse at 30 mg/kg by tail flick assay. Type of assay: functional, organism-based. On the set-up: dose 30 mg/kg. A general note: In hot-plate and tail-flick tests a longer latency is read as antinociception.
Assay [5] deals with Mus musculus. Briefly: Antinociceptive effect in mouse at 30 mg/kg by hot plate assay. Type of assay: functional, organism-based. On the set-up: dose 30 mg/kg.
The subject of assay [6] is Mus musculus. Briefly: Antinociceptive effect in mouse at 30 mg/kg by antiwrithing assay. The assay is classed as functional, organism-based. On the set-up: dose 30 mg/kg. (In general: An intraperitoneal irritant provokes the stretching counted in writhing tests.)
Assay [7] concerns Mus musculus. Briefly: Antinociceptive effect in mouse at 30 mg/kg by […]. The assay is classed as functional, organism-based. Further details: dose 30 mg/kg.
The target of assay [8] is T1, Mu-type opioid receptor. The experiment in a line: Activity at mu opioid receptor assessed as stimulation of [35S]GTP-gamma-S binding. Type of assay: functional.
The target of assay [9] is T2, Delta-type opioid receptor. Briefly: Activity at delta opioid receptor assessed as stimulation of [35S]GTP-gamma-S binding.

T2 sequence (P41143 whole entry): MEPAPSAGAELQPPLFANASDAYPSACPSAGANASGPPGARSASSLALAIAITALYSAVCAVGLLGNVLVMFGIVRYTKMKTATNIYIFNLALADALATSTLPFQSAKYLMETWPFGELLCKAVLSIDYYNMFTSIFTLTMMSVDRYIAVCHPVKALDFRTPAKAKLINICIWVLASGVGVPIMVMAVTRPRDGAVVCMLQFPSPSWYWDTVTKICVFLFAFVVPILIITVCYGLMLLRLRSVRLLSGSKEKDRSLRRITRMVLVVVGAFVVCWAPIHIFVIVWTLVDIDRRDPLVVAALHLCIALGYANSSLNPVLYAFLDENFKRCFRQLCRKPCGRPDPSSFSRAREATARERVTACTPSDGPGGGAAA
Chain of Kappa-type opioid receptor (P41145 whole entry): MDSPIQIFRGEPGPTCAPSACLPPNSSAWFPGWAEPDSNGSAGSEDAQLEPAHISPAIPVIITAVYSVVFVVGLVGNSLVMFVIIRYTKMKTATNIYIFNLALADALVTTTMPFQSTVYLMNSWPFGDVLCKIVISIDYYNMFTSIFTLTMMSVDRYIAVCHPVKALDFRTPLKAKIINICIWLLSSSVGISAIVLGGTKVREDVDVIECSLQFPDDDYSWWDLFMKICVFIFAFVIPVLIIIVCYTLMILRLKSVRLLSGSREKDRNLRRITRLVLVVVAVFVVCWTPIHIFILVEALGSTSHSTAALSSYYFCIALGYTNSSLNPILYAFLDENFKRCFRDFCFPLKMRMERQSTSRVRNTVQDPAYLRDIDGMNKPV
T1 sequence (P35372 whole entry): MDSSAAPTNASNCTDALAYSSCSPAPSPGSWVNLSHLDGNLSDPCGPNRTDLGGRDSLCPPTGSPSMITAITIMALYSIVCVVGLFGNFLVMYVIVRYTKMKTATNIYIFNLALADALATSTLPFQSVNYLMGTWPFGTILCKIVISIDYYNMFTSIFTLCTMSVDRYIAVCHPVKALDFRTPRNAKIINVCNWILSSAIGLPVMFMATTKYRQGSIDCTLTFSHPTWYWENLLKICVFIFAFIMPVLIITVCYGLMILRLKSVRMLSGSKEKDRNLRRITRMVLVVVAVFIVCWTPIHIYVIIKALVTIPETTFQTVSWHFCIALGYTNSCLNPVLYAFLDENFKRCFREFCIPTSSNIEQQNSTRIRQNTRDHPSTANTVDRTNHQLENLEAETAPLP

`CN1CC[C@]23c4c5ccc(O)c4O[C@H]2c2[nH]c4ccc(I)cc4c2C[C@@]3(O)[C@H]1C5`: the Ki was found to be 66 nM on Mu-type opioid receptor [1], 3.8 nM in assay [2] and 160 nM in assay [3]. In addition, the Ratio Ki in the assay listed under Homo sapiens was 17. The result in the assay on Mus musculus [4], in the assay with Mus musculus [5], in the assay on Mus musculus [6] and in the assay on Mus musculus [7] was inactive.
Regarding `CN1CC[C@]23c4c5ccc(O)c4O[C@H]2c2[nH]c4ccc(F)cc4c2C[C@@]3(O)[C@H]1C5`, the values for the inhibition constant (Ki) (on Mu-type opioid receptor [1]; in [2]; in assay [3]) were 21 nM, 2.3 nM and 310 nM, respectively. The Ratio Ki in the assay filed under Homo sapiens was 9. Besides, the outcome in the assay with Mus musculus [4], in the assay with Mus musculus [5], in the assay on Mus musculus [6] and in the assay on Mus musculus [7] was inactive. Moreover, the Activity on Mu-type opioid receptor [8] came to 34%. For the same compound, the figures for the EC50 (on Mu-type opioid receptor [8]; in assay [9]) were 1080 nM and 16 nM, respectively.
On to `CN1CC[C@]23c4c5ccc(O)c4O[C@H]2c2[nH]c4ccccc4c2C[C@@]3(O)[C@H]1C5` [OXYMORPHINDOLE], for which the Ki on Mu-type opioid receptor [1] came to 105 nM; in assay [2] it was 0.9 nM. Besides, the Ratio Ki in the assay filed under Homo sapiens was 115. Further, the result with Mus musculus [4], with Mus musculus [5], in the assay on Mus musculus [6] and in the assay on Mus musculus [7] was inactive.
In the case of `CN1CC[C@]23c4c5ccc(O)c4O[C@H]2c2[nH]c4ccc(Cl)cc4c2C[C@@]3(O)[C@H]1C5`, the values for the inhibitory constant (Ki) (at Mu-type opioid receptor [1]; in assay [2]; in assay [3]) were 47 nM, 5.1 nM and 360 nM, respectively. Besides, the Ratio Ki in the assay filed under Homo sapiens stood at 9. Besides, the result with Mus musculus [4], in the assay with Mus musculus [5], in the assay with Mus musculus [6] and in the assay on Mus musculus [7] was inactive.
Consider `CN1CC[C@]23c4c5ccc(O)c4O[C@H]2c2[nH]c4ccc(Br)cc4c2C[C@@]3(O)[C@H]1C5`, for which the inhibition constant Ki worked out at 71 nM on Mu-type opioid receptor [1], 8.6 nM in assay [2] and 250 nM in [3]. In addition, in the assay listed under Homo sapiens, the Ratio Ki came out at 8. In addition, the result with Mus musculus [4], in the assay on Mus musculus [5], in the assay on Mus musculus [6] and in the assay with Mus musculus [7] was inactive.
